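All cell lines were grown in 96-well plates and treated with compound for 48 hours. GI50 marks 50% less growth. TGI marks complete inhibition of growth.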
How the values were obtained:
Test in all cases: inhibition of tumour cell growth, NCI panel, 48 h
CCRF-CEM leukemia = tested on: CCRF-CEM leukemia
OVCAR-5 ovarian = tested on: OVCAR-5 ovarian
M14 melanoma = tested on: M14 melanoma
UO-31 renal = tested on: UO-31 renal
SF-295 CNS = tested on: SF-295 CNS
HCT-116 colon = tested on: HCT-116 colon
HCT-15 colon = tested on: HCT-15 colon
HOP-92 NSCLC = tested on: HOP-92 NSCLC
OVCAR-8 ovarian = tested on: OVCAR-8 ovarian
CAKI-1 renal = tested on: CAKI-1 renal
NCI-H460 lung = tested on: NCI-H460 lung
BT-549 breast = tested on: BT-549 breast
KM12 colon = tested on: KM12 colon
A549 NSCLC = tested on: A549 NSCLC
K-562 leukemia = tested on: K-562 leukemia
NCI/ADR-RES ovarian = tested on: NCI/ADR-RES ovarian
LOX IMVI melanoma = tested on: LOX IMVI melanoma
TK-10 renal = tested on: TK-10 renal
SK-MEL-2 melanoma = tested on: SK-MEL-2 melanoma
ACHN renal = tested on: ACHN renal
OVCAR-3 ovarian = tested on: OVCAR-3 ovarian
SN12C renal = tested on: SN12C renal
COLO 205 colon = tested on: COLO 205 colon
NCI-H522 lung = tested on: NCI-H522 lung
MDA-MB-435 = tested on: MDA-MB-435
SK-OV-3 ovarian = tested on: SK-OV-3 ovarian
T-47D breast = tested on: T-47D breast
HL-60(TB) leukemia = tested on: HL-60(TB) leukemia
NCI-H23 lung = tested on: NCI-H23 lung
SK-MEL-28 melanoma = tested on: SK-MEL-28 melanoma
HCC-2998 colon = tested on: HCC-2998 colon
SK-MEL-5 melanoma = tested on: SK-MEL-5 melanoma
MALME-3M melanoma = tested on: MALME-3M melanoma
SF-539 CNS = tested on: SF-539 CNS
SNB-19 CNS = tested on: SNB-19 CNS
HS 578T breast = tested on: HS 578T breast
HOP-62 NSCLC = tested on: HOP-62 NSCLC
UACC-62 melanoma = tested on: UACC-62 melanoma
NCI-H226 lung = tested on: NCI-H226 lung
SF-268 CNS = tested on: SF-268 CNS
RXF 393 renal = tested on: RXF 393 renal
SW-620 colon = tested on: SW-620 colon
UACC-257 melanoma = tested on: UACC-257 melanoma
MCF7 breast = tested on: MCF7 breast
PC-3 prostate = tested on: PC-3 prostate
MDA-MB-231 breast = tested on: MDA-MB-231 breast
MOLT-4 leukemia = tested on: MOLT-4 leukemia
SNB-75 CNS = tested on: SNB-75 CNS
786-0 renal = tested on: 786-0 renal
SR leukemia = tested on: SR leukemia
RPMI-8226 leukemia = tested on: RPMI-8226 leukemia
IGROV1 ovarian = tested on: IGROV1 ovarian
DU-145 prostate = tested on: DU-145 prostate
A498 renal = tested on: A498 renal
EKVX NSCLC = tested on: EKVX NSCLC
OVCAR-4 ovarian = tested on: OVCAR-4 ovarian
HT29 colon = tested on: HT29 colon
U251 CNS = tested on: U251 CNS

## COc1cc(C2CC(c3cccc(Nc4ccnc5cc(Cl)ccc45)c3)=NN2c2ccc(Cl)cc2)cc(OC)c1OC (configuration not stated)
CCRF-CEM leukemia
  GI50: 4.84 µM
  TGI: > 100 µM
OVCAR-5 ovarian
  GI50: 13.2 µM
  TGI: > 100 µM
M14 melanoma
  GI50: 0.63 µM
  TGI: 13.8 µM
UO-31 renal
  GI50: 0.489 µM
  TGI: 15.3 µM
SF-295 CNS
  GI50: 1.71 µM
  TGI: 33.8 µM
HCT-116 colon
  GI50: 1.68 µM
  TGI: > 100 µM
HCT-15 colon
  GI50: 1.28 µM
  TGI: > 100 µM
HOP-92 NSCLC
  GI50: 1.85 µM
  TGI: 74.8 µM
OVCAR-8 ovarian
  GI50: 5.36 µM
  TGI: > 100 µM
CAKI-1 renal
  GI50: 0.693 µM
  TGI: > 100 µM
NCI-H460 lung
  GI50: 0.772 µM
  TGI: > 100 µM
BT-549 breast
  GI50: 4.63 µM
  TGI: 78.6 µM
KM12 colon
  GI50: 0.818 µM
  TGI: 93.6 µM
A549 NSCLC
  GI50: 2.72 µM
  TGI: > 100 µM
K-562 leukemia
  GI50: 0.755 µM
  TGI: > 100 µM
NCI/ADR-RES ovarian
  GI50: 3.18 µM
  TGI: > 100 µM
LOX IMVI melanoma
  GI50: 0.647 µM
  TGI: > 100 µM
TK-10 renal
  GI50: 3.27 µM
  TGI: 19.1 µM
SK-MEL-2 melanoma
  GI50: 4.65 µM
  TGI: 35.3 µM
ACHN renal
  GI50: 1.48 µM
  TGI: > 100 µM
OVCAR-3 ovarian
  GI50: 3.72 µM
  TGI: > 100 µM
SN12C renal
  GI50: 7.24 µM
  TGI: > 100 µM
COLO 205 colon
  GI50: 3.13 µM
  TGI: 24.5 µM
NCI-H522 lung
  GI50: 1.57 µM
  TGI: 22.8 µM
MDA-MB-435
  GI50: 0.804 µM
  TGI: 6.58 µM
SK-OV-3 ovarian
  GI50: 17.3 µM
  TGI: > 100 µM
T-47D breast
  GI50: 0.687 µM
  TGI: > 100 µM
HL-60(TB) leukemia
  GI50: 4.18 µM
  TGI: > 100 µM
NCI-H23 lung
  GI50: 17.5 µM
  TGI: > 100 µM
SK-MEL-28 melanoma
  GI50: 4.54 µM
  TGI: > 100 µM
HCC-2998 colon
  GI50: 3.14 µM
  TGI: 22.1 µM
SK-MEL-5 melanoma
  GI50: 1.37 µM
  TGI: 4.05 µM
MALME-3M melanoma
  GI50: 21.9 µM
  TGI: > 100 µM
SF-539 CNS
  GI50: 1.71 µM
  TGI: 4.87 µM
SNB-19 CNS
  GI50: 30.3 µM
  TGI: > 100 µM
HS 578T breast
  GI50: 2.45 µM
  TGI: 86.8 µM
HOP-62 NSCLC
  GI50: 1.39 µM
  TGI: 22.7 µM
UACC-62 melanoma
  GI50: 0.311 µM
  TGI: 19.9 µM
NCI-H226 lung
  GI50: 8.45 µM
  TGI: > 100 µM
SF-268 CNS
  GI50: 8.16 µM
  TGI: > 100 µM
RXF 393 renal
  GI50: 2.42 µM
  TGI: 34.4 µM
SW-620 colon
  GI50: 0.666 µM
  TGI: > 100 µM
UACC-257 melanoma
  GI50: 3.45 µM
  TGI: > 100 µM
MCF7 breast
  GI50: 2.31 µM
  TGI: > 100 µM
PC-3 prostate
  GI50: 0.819 µM
  TGI: > 100 µM
MDA-MB-231 breast
  GI50: 2.97 µM
  TGI: > 100 µM
MOLT-4 leukemia
  GI50: 3.68 µM
  TGI: > 100 µM
SNB-75 CNS
  GI50: 2.22 µM
  TGI: > 100 µM
786-0 renal
  GI50: 2.05 µM
  TGI: 26.2 µM
SR leukemia
  GI50: 2.54 µM
  TGI: > 100 µM
RPMI-8226 leukemia
  GI50: 3.69 µM
  TGI: > 100 µM
IGROV1 ovarian
  GI50: 3.89 µM
  TGI: > 100 µM
DU-145 prostate
  GI50: 17.1 µM
  TGI: > 100 µM
A498 renal
  GI50: 4.65 µM
  TGI: 91.5 µM

## O=C(Nc1ccc(Cc2ccccc2)cc1)Nc1nn(C(=O)Nc2ccc(Cc3ccccc3)cc2)c2ccccc12
OVCAR-5 ovarian
  GI50: > 100 µM
  TGI: > 100 µM
M14 melanoma
  GI50: > 100 µM
  TGI: > 100 µM
UO-31 renal
  GI50: > 100 µM
  TGI: > 100 µM
SF-295 CNS
  GI50: > 100 µM
  TGI: > 100 µM
HCT-116 colon
  GI50: > 100 µM
  TGI: > 100 µM
HCT-15 colon
  GI50: > 100 µM
  TGI: > 100 µM
HOP-92 NSCLC
  GI50: 18 µM
  TGI: > 100 µM
OVCAR-8 ovarian
  GI50: > 100 µM
  TGI: > 100 µM
CAKI-1 renal
  GI50: > 100 µM
  TGI: > 100 µM
EKVX NSCLC
  GI50: > 100 µM
  TGI: > 100 µM
NCI-H460 lung
  GI50: > 100 µM
  TGI: > 100 µM
OVCAR-4 ovarian
  GI50: > 100 µM
  TGI: > 100 µM
BT-549 breast
  GI50: > 100 µM
  TGI: > 100 µM
KM12 colon
  GI50: > 100 µM
  TGI: > 100 µM
A549 NSCLC
  GI50: > 100 µM
  TGI: > 100 µM
K-562 leukemia
  GI50: 40.5 µM
  TGI: > 100 µM
NCI/ADR-RES ovarian
  GI50: > 100 µM
  TGI: > 100 µM
LOX IMVI melanoma
  GI50: 71 µM
  TGI: > 100 µM
TK-10 renal
  GI50: > 100 µM
  TGI: > 100 µM
SK-MEL-2 melanoma
  GI50: > 100 µM
  TGI: > 100 µM
ACHN renal
  GI50: > 100 µM
  TGI: > 100 µM
OVCAR-3 ovarian
  GI50: > 100 µM
  TGI: > 100 µM
SN12C renal
  GI50: > 100 µM
  TGI: > 100 µM
COLO 205 colon
  GI50: > 100 µM
  TGI: > 100 µM
NCI-H522 lung
  GI50: > 100 µM
  TGI: > 100 µM
MDA-MB-435
  GI50: > 100 µM
  TGI: > 100 µM
HT29 colon
  GI50: > 100 µM
  TGI: > 100 µM
SK-OV-3 ovarian
  GI50: > 100 µM
  TGI: > 100 µM
T-47D breast
  GI50: > 100 µM
  TGI: > 100 µM
HL-60(TB) leukemia
  GI50: > 100 µM
  TGI: > 100 µM
NCI-H23 lung
  GI50: > 100 µM
  TGI: > 100 µM
SK-MEL-28 melanoma
  GI50: > 100 µM
  TGI: > 100 µM
HCC-2998 colon
  GI50: > 100 µM
  TGI: > 100 µM
SK-MEL-5 melanoma
  GI50: > 100 µM
  TGI: > 100 µM
MALME-3M melanoma
  GI50: > 100 µM
  TGI: > 100 µM
SF-539 CNS
  GI50: > 100 µM
  TGI: > 100 µM
SNB-19 CNS
  GI50: > 100 µM
  TGI: > 100 µM
HS 578T breast
  GI50: 74.2 µM
  TGI: > 100 µM
HOP-62 NSCLC
  GI50: 59.7 µM
  TGI: > 100 µM
UACC-62 melanoma
  GI50: 41.6 µM
  TGI: > 100 µM
NCI-H226 lung
  GI50: > 100 µM
  TGI: > 100 µM
SF-268 CNS
  GI50: 75.6 µM
  TGI: > 100 µM
RXF 393 renal
  GI50: 30.4 µM
  TGI: > 100 µM
SW-620 colon
  GI50: > 100 µM
  TGI: > 100 µM
UACC-257 melanoma
  GI50: > 100 µM
  TGI: > 100 µM
MCF7 breast
  GI50: > 100 µM
  TGI: > 100 µM
PC-3 prostate
  GI50: > 100 µM
  TGI: > 100 µM
MDA-MB-231 breast
  GI50: 47.1 µM
  TGI: > 100 µM
MOLT-4 leukemia
  GI50: 63.2 µM
  TGI: > 100 µM
SNB-75 CNS
  GI50: 33.8 µM
  TGI: > 100 µM
786-0 renal
  GI50: > 100 µM
  TGI: > 100 µM
SR leukemia
  GI50: 16.3 µM
  TGI: 35.8 µM
RPMI-8226 leukemia
  GI50: > 100 µM
  TGI: > 100 µM
IGROV1 ovarian
  GI50: > 100 µM
  TGI: > 100 µM
DU-145 prostate
  GI50: 80 µM
  TGI: > 100 µM
U251 CNS
  GI50: 70.2 µM
  TGI: > 100 µM
A498 renal
  GI50: 82.4 µM
  TGI: > 100 µM

— PubChem BioAssay (NCI)
